One compound from article PMC8129133, “Polymer-free corticosteroid dimer implants for controlled and sustained drug delivery” (Nature Communications, 2021) can be followed below.

The series in a line: 3-point bend test of extruded rods. The format is physicochemical. Particulars: Fig 2c. The text has this:
Extruded rods of ~300 µm diameter and 8 mm length (6 mm span on testing apparatus) were subjected to a 3-point bend test using an Instron uniaxial servo-hydraulic testing machine (Instron Model 8501) with a 2.5 N load cell and cross-head speed of 0.8 mm/min.

Where “and” joins values, the source holds several entries; their conditions need not be identical. Equal values may be shown once.

For `C[C@@H]1C[C@H]2[C@@H]3CCC4=CC(=O)C=C[C@]4(C)[C@@]3(F)[C@@H](O)C[C@]2(C)[C@@]1(O)C(=O)COC(=O)OCCOCCOCCOC(=O)OCC(=O)[C@@]1(O)[C@H](C)C[C@H]2[C@@H]3CCC4=CC(=O)C=C[C@]4(C)[C@@]3(F)[C@@H](O)C[C@@]21C` [Dex-TEG-Dex], the “Flexural Modulus” value was 2.45 GPa and 2.68 GPa and 3.21 GPa and 3.29 GPa and 3.01 GPa.
